Test results from patent US20030161902A1, “Increased lifespan formulation” (priority 2001, published 2003).

Legend:
rodent = rodent trials, dietary supplementation; cited from earlier work
[1] = Antioxidant activity of mouse food and pine bark extract (Table 2); format: biochemical
Procedure: The experimental mice were fed ad libitum on Archer's mouse food pellets dosed with measured doses of pine bark extract manufactured as above. Preferably, the present composition is administered in a form selected from the group including: a tablet; a capsule; a suppository; an injection; a suspension; a drink; a tonic; a syrup; a powder; an ingredient in solid foods; an ingredient in liquid foods; and combinations thereof, all of which are considered equivalent. Most preferably, the composition is administered orally as a powder mixed with food. The antioxidant composition of the food was as follows (Table 2 below): […]

mice = settings: cited from earlier work

| Molecule | effect on mean survivorship and maximum life span (rodent) | EC50 ([1]; antioxidant composition of sample) [µg/mL] | RELATIVE ANTIOXIDANT ACTIVITY ([1]; relative to mouse pellet = 1) | effect on maximum lifespan (mice; mice fed supplement) | toxicity (mice; mouse, in vivo) |
| --- | --- | --- | --- | --- | --- |
| vitamin E | Increases in mean survivorship, but not maximum life span |  |  |  |  |
| O=C1O[C@H]([C@@H](O)CO)C(O)=C1O [Vitamin C] | Increases in mean survivorship, but not maximum life span | 3.79 | 1.76 |  |  |
| OCCS [2-mercaptoethanol] |  |  |  | increase in maximum lifespan | toxic |
